Test system: aquatic species in Liaohe River Basin
Test: Derivation of site-specific water quality criterion (species sensitivity distribution and toxicity sorting)

ammonia nitrogen
water quality criterion value derived by the toxicity sorting method (Liaohe River Basin, four most sensitive resident sensitive and endemic species): 15.91 mg/L | water quality criterion value derived by the species sensitivity method (Liaohe River Basin, safety coefficient 2): 13.47 mg/L | water quality criterion value (validation value) (Liaohe River Basin, weights 0.3 and 0.7, pH=7.0 and temperature=20° C.): 15.18 mg/L | X value at Y=0.05 transformed to a base-10 exponent (logistic SSD model, before division by safety coefficient 2): 26.93 mg/L | X (log10 toxicity value) at Y=0.05 on the logistic SSD fitting curve (logistic model, cumulative probability Y=0.05, pH=7.0, temperature=20° C.): 1.4302

Source: patent publication US20220042962A1, “METHOD FOR […] SITE-[…] WATER QUALITY […] OF RIVER BASIN” (DALIAN UNIVERSITY OF TECHNOLOGY, priority 2020, published 2022)
